Results as given in patent US9512120B2, “Microbicidally active imidazopyridine derivatives” (Syngenta Participations AG, priority 2013, dated 2016).

What was measured:
[1] = system: Glomerella lagenarium (Colletotrichum lagenarium); assay: Glomerella lagenarium (Colletotrichum lagenarium) / liquid culture (anthracnose); assay type: cell-based; conditions: Colletotrichum orbiculare, PDB, 24° C., 3-4 days after application, read-out: control of Glomerella lagenarium (inhibition of growth, photometric)
In short: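 Cryopreserved conidia suspended in potato dextrose broth were added to compound in DMSO applied at 200 ppm. Plates incubated at 24° C; growth inhibition read photometrically 3-4 days after application.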

[2] = system: Botryotinia fuckeliana (Botrytis cinerea); assay: Botryotinia fuckeliana (Botrytis cinerea) / liquid culture (gray mould); assay type: cell-based; conditions: Vogels broth, 24° C., 3-4 days after application, read-out: control of Botryotinia fuckeliana (inhibition of growth, photometric)
In short: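 Botrytis cinerea conidia in Vogels broth were added to test compound applied from DMSO at 200 ppm. Incubation at 24 °C; growth inhibition read photometrically 3-4 days after application.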

Pyrenophora teres = Pyrenophora teres / barley / leaf disc preventative (net blotch); assay type: in vivo; conditions: foliar, barley leaf segments cv Hasso, inoculated two days after application, assessed 5-7 days after application, read-out: control of Pyrenophora teres (disease control compared to untreated)
In short: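 Barley cv Hasso leaf segments on agar sprayed with compound at 200 ppm, inoculated with spores two days later. Kept at 20 °C, 65% RH, 12/12 h light; disease control versus untreated scored 5-7 days after application.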

[3] = system: Blumeria graminis f. Sp. Tritici (Erysiphe graminis f. Sp. Tritici); assay: Blumeria graminis f. sp. tritici / wheat / leaf disc preventative (powdery mildew on wheat); assay type: in vivo; conditions: foliar, wheat leaf segments cv. Kanzler, inoculated 1 day after application, assessed 6-8 days after application, read-out: control of Blumeria graminis (percent disease control compared to untreated)
Experimental: Blumeria graminis f. Sp. Tritici (Erysiphe graminis f. Sp. Tritici)/Wheat/Leaf Disc Preventative (Powdery Mildew on Wheat):
Wheat leaf segments cv. Kanzler were placed on agar in a 24-well plate and sprayed with the formulated test compound diluted in water at an application rate of 200 ppm. The leaf disks were inoculated by shaking powdery mildew infected plants above the test plates 1 day after application. The inoculated leaf disks were incubated at 20° C. and 60% relative humidity under a light regime of 24 h darkness followed by 12 h/12 h (dark/light) in a climate chamber and the activity of a compound was assessed as percent disease control compared to untreated when an appropriate level of disease damage appears on untreated check leaf segments (6-8 days after application). The following compounds gave at least 80% control of Blumeria graminis at 200 ppm when compared to untreated control leaf disks under the same conditions, which show extensive disease development: 2, 13, 23, 50, 59, 61, 67, 75, 85, 86, 89, 90, 93, 102, 103, 107, 134, 136, 137, 138, 139, 141, 145, 151, 153, 154, 163, 173, 174

[4] = system: Mycosphaerella graminicola (Septoria tritici); assay: Mycosphaerella graminicola (Septoria tritici) / liquid culture (Septoria blotch); assay type: cell-based; conditions: Zymoseptoria tritici, PDB, 24° C., 4-5 days after application, read-out: control of Mycosphaerella graminicola (inhibition of growth, photometric)
In short: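 Cryo-stored conidia in potato dextrose broth were added to compound in DMSO at 200 ppm in microtiter plates. Plates were incubated at 24 °C and growth inhibition was measured photometrically 4–5 days after application.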

[5] = system: Puccinia recondita f. sp. Tritici; assay: Puccinia recondita f. sp. tritici / wheat / leaf disc preventative (brown rust); assay type: in vivo; conditions: foliar, wheat leaf segments cv Kanzler, inoculated 1 day after application, assessed 7-9 days after application, read-out: control of Puccinia recondita f. sp. Tritici (percent disease control compared to untreated)
In short: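 Leaf segments of wheat cv Kanzler on agar were sprayed with formulated compound at 200 ppm and inoculated with spores 1 day later. Incubation was at 19° C, 75% relative humidity and 12/12 h light/dark. Activity was scored 7-9 days after application as percent disease control versus untreated.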

Plasmopara viticola = Plasmopara viticola / grape / leaf disc preventative; assay type: in vivo; conditions: foliar, grape vine leaf disks, inoculated 1 day after application, assessed 6-8 days after application, read-out: control of Plasmopara viticola (percent disease control compared to untreated)
[6] = system: Mycosphaerella arachidis (Cercospora arachidicola); assay: Mycosphaerella arachidis (Cercospora arachidicola) / liquid culture (early leaf spot); assay type: cell-based; conditions: PDB, 24° C., 4-5 days after application, read-out: control of Mycosphaerella arachidis (inhibition of growth, photometric)
In short: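 Conidia suspended in potato dextrose broth and added to test compound from DMSO solution at 200 ppm. Incubated at 24 °C; growth inhibition read photometrically 4-5 days after application.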

[7] = system: Thanatephorus cucumeris (Rhizoctonia solani); assay: Thanatephorus cucumeris (Rhizoctonia solani) / liquid culture (foot rot, damping-off); assay type: cell-based; conditions: PDB, 24° C., 3-4 days after application, read-out: control of Thanatephorus cucumeris (inhibition of growth, photometric)
In short: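 Mycelial fragments in potato dextrose broth exposed to test compounds at 200 ppm (from DMSO solution), incubated at 24° C. Growth inhibition read photometrically 3-4 days after application.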

Gaeumannomyces graminis = Gaeumannomyces graminis / liquid culture (take-all of cereals); assay type: cell-based; conditions: PDB, 24° C., 4-5 days after application, read-out: control of Gaeumannomyces graminis (inhibition of growth, photometric)
In short: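 Mycelial fragments in potato dextrose broth were exposed to compound from DMSO at 200 ppm in microtiter plates. Incubation at 24 °C; growth inhibition read photometrically 4-5 days after application.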

Sclerotinia sclerotiorum = Sclerotinia sclerotiorum liquid culture (cottony rot / white mold); assay type: cell-based; conditions: PDB, 24° C., 3-4 days after application, read-out: control of Sclerotinia sclerotiorum (inhibition of growth, photometric)
In short: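 Mycelia fragments of Sclerotinia sclerotiorum in potato dextrose broth were added to compound in DMSO. Cultures incubated at 24° C; growth inhibition determined photometrically 3-4 days after application.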

[8] = system: Monographella nivalis (Microdochium nivale); assay: Monographella nivalis (Microdochium nivale) / liquid culture (foot rot cereals); assay type: cell-based; conditions: PDB, 24° C., 4-5 days after application, read-out: control of Monographella nivalis (inhibition of growth, photometric)
In short: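 Cryostored conidia in potato dextrose broth were added to test compound dispensed from DMSO at 200 ppm. Plates were kept at 24° C, and growth inhibition was read photometrically 4-5 days after application.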

[9] = system: Phaeosphaeria nodorum (Septoria nodorum); assay: Phaeosphaeria nodorum (Septoria nodorum) / wheat / leaf disc preventative (glume blotch); assay type: in vivo; conditions: Parastagonospora nodorum, foliar, wheat leaf segments cv Kanzler, inoculated 2 days after application, assessed 5-7 days after application, read-out: control of Phaeosphaeria nodorum (percent disease control compared to untreated)
In short: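 Wheat leaf segments (cv Kanzler) on agar sprayed with compound at 200 ppm, inoculated with spores 2 days later. Incubated at 20° C., 75% relative humidity, 12/12 h light/dark; percent disease control versus untreated scored 5-7 days after application.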

Pythium ultimum = Pythium ultimum / liquid culture (seedling damping off); assay type: cell-based; conditions: Globisporangium ultimum, potato dextrose broth, 24° C., 2-3 days after application, read-out: control of Pythium ultimum (inhibition of growth, photometric)
Experimental: Pythium ultimum/Liquid Culture (Seedling Damping Off) Mycelia fragments and oospores of a newly grown liquid culture of the fungus were directly mixed into nutrient broth (potato dextrose broth). After placing a DMSO solution of test compound into a 96-well format microtiter plate at an application rate of 200 ppm, the nutrient broth containing the fungal mycelia/spore mixture was added. The test plates were incubated at 24° C. and the inhibition of growth was determined photometrically 2-3 days after application.

Row | melting point [°C] | SMILES | inhibition at 20 ppm [1] [%] | inhibition at 20 ppm [2] [%] | pest or weed control at 200 ppm (Pyrenophora teres) [%] | pest or weed control at 200 ppm [3] [%] | inhibition at 20 ppm [4] [%] | pest or weed control at 200 ppm [5] [%] | pest or weed control at 200 ppm (Plasmopara viticola) [%] | inhibition at 20 ppm [6] [%] | inhibition at 20 ppm [7] [%] | inhibition at 20 ppm (Gaeumannomyces graminis) [%] | inhibition at 20 ppm (Sclerotinia sclerotiorum) [%] | inhibition at 20 ppm [8] [%] | pest or weed control at 200 ppm [9] [%] | inhibition at 20 ppm (Pythium ultimum) [%]
1 |  | CCn1c(-n2ncnc2N)nc2cncc(C(C)=NOCc3c(F)c(F)c(F)c(F)c3F)c21 [Compound 163] | ≥ 80 | ≥ 80 | ≥ 80 | ≥ 80 | ≥ 80 | ≥ 80 | ≥ 80 | ≥ 80 | ≥ 80 |  |  |  |  | 
2 |  | CCn1c(-n2ncnc2N)nc2cncc(C(C)=NOCc3ccc(C)cc3)c21 [Compound 139] | ≥ 80 | ≥ 80 | ≥ 80 | ≥ 80 | ≥ 80 | ≥ 80 | ≥ 80 | ≥ 80 | ≥ 80 | ≥ 80 | ≥ 80 | ≥ 80 |  | 
3 |  | CCn1c(-n2ncnc2N)nc2cncc(-c3cncnc3)c21 [Compound 50, 2-(1-ethyl-7-pyrimidin-5-ylimidazo[4,5-c]pyridin-2-yl)-1,2,4-triazol-3-amine] |  |  |  | ≥ 80 |  |  |  |  |  |  |  |  |  | 
4 | 183 to 186 | CCn1c(-n2ncnc2N)nc2cncc(C3=CCN(C(=O)OC(C)(C)C)CC3)c21 [Compound 107, tert-butyl 4-[2-(5-amino-1,2,4-triazol-1-yl)-1-ethylimidazo[4,5-c]pyridin-7-yl]-3,6-dihydro-2H-pyridine-1-carboxylate] |  |  |  | ≥ 80 |  |  |  |  |  |  |  |  |  | 
5 |  | CCn1c(-n2ncnc2N)nc2cncc(/C(C)=N/OC/C=C(\C)Cl)c21 [Compound 154, 2-[7-[(E)-N-[(E)-3-chlorobut-2-enoxy]-C-methyl-carbonimidoyl]-1-ethyl-imidazo[4,5-c]pyridin-2-yl]-1,2,4-triazol-3-amine] | ≥ 80 | ≥ 80 | ≥ 80 | ≥ 80 | ≥ 80 | ≥ 80 | ≥ 80 |  | ≥ 80 |  | ≥ 80 |  |  | 
6 | 228 to 240 | CCn1c(-n2ncnc2N)nc2cncc(C(C)=NO)c21 [Compound 136, 1-[2-(5-amino-1,2,4-triazol-1-yl)-1-ethyl-imidazo[4,5-c]pyridin-7-yl]ethanone oxime] | ≥ 80 |  | ≥ 80 | ≥ 80 |  |  |  |  |  | ≥ 80 |  |  |  | 
7 | 142 to 146 | C=CCON=C(C)c1cncc2nc(-n3ncnc3N)n(CC)c12 [Compound 138] | ≥ 80 | ≥ 80 | ≥ 80 | ≥ 80 | ≥ 80 |  |  |  | ≥ 80 | ≥ 80 |  | ≥ 80 |  | 
8 |  | C=C(Cl)CO/N=C(/C)c1cncc2nc(-n3ncnc3N)n(CC)c12 [Compound 151] | ≥ 80 | ≥ 80 | ≥ 80 | ≥ 80 | ≥ 80 | ≥ 80 | ≥ 80 |  | ≥ 80 |  | ≥ 80 | ≥ 80 | ≥ 80 | 
9 | 159 to 171 | CCn1c(-n2ncnc2N)nc2cncc(C(C)=NOCc3ccccc3F)c21 [Compound 137] | ≥ 80 | ≥ 80 | ≥ 80 | ≥ 80 | ≥ 80 | ≥ 80 | ≥ 80 |  | ≥ 80 | ≥ 80 | ≥ 80 | ≥ 80 | ≥ 80 | 
10 |  | CCCc1cncc2nc(-n3ncnc3N)n(CCC)c12 [Compound 190, 2-(1,7-dipropylimidazo[4,5-c]pyridin-2-yl)-1,2,4-triazol-3-amine] |  | ≥ 80 | ≥ 80 |  | ≥ 80 | ≥ 80 |  |  | ≥ 80 | ≥ 80 | ≥ 80 | ≥ 80 | ≥ 80 | ≥ 80
11 | 151 to 163 | CCn1c(-n2ncnc2N)nc2cncc(C(C)=NOCC3CC3)c21 [Compound 141] | ≥ 80 | ≥ 80 | ≥ 80 | ≥ 80 | ≥ 80 |  |  | ≥ 80 | ≥ 80 | ≥ 80 |  |  |  | 
12 |  | CCn1c(-n2ncnc2N)nc2cncc(C(C)=NOCc3ccc(Cl)cc3)c21 [Compound 145] | ≥ 80 | ≥ 80 | ≥ 80 | ≥ 80 | ≥ 80 | ≥ 80 | ≥ 80 |  | ≥ 80 |  | ≥ 80 | ≥ 80 | ≥ 80 | 
13 | 160 to 165 | CCON=C(C)c1cncc2nc(-n3ncnc3N)n(CC)c12 [Compound 134] |  | ≥ 80 | ≥ 80 | ≥ 80 | ≥ 80 | ≥ 80 |  | ≥ 80 | ≥ 80 | ≥ 80 |  | ≥ 80 |  | 
